Measured values as given in patent US20150105252A1, “SUBSTITUTED PYRAZOLES AS HERBICIDES” (E I DU PONT DE NEMOURS AND COMPANY, priority 2013, published 2015).

Tests used:
[1] = system: common ragweed; experiment: Test A preemergence; assay type: in vivo, Ambrosia elation; conditions: for Common Ragweed plant response rating (0 to 100 scale): visual injury approx. 10 days after treatment
Procedure, shortened: (§1)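 Injury readout: eye-scored versus untreated controls, 0 to 100. Exposure period: ~10 days, greenhouse. Application: soil-directed spray over sown seed (pre) or spray on seedlings 2–10 cm tall with one or two leaves (post), compound carried in non-phytotoxic solvent including surfactant.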

[2] = system: ducksalad; experiment: Test B flood; assay type: in vivo, Heteranthera limosa; conditions: 250 g ai/ha, visual rating on 0 to 100 scale (0 no effect, 100 complete control), 13 to 15 days
Procedure, shortened: (§2)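 Flooded-pot test: compound dosed into 3 cm of standing water above soil when plants had two leaves. Visual control ratings (0–100) versus untreated plants after 13–15 d.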

[3] = system: rice; experiment: Test B flood; assay type: in vivo, Oryza sativa; conditions: 250 g ai/ha, visual rating on 0 to 100 scale (0 no effect, 100 complete control), 13 to 15 days
Procedure, shortened: as §2

[4] = system: pigweed; experiment: Test A preemergence; assay type: in vivo, Amaranthus retroflexus; conditions: preemergence; for Pigweed plant response rating (0 to 100 scale): visual injury approx. 10 days after treatment
Procedure, shortened: as §1

[5] = system: corn; experiment: Test A postemergence; assay type: in vivo, Zea mays
Procedure, shortened: as §1

[6] = system: wheat; experiment: Test A postemergence; assay type: in vivo, Triticum aestivum
Procedure, shortened: as §1

[7] = system: kochia; experiment: Test A preemergence; assay type: in vivo, Kochia scoparia; conditions: for Kochia plant response rating (0 to 100 scale): visual injury approx. 10 days after treatment
Procedure, shortened: as §1

[8] = system: common ragweed; experiment: Test A postemergence; assay type: in vivo, Ambrosia elation
Procedure, shortened: as §1

[9] = system: sedge, umbrella; experiment: Test B flood; assay type: in vivo, Cyperus difformis; conditions: 250 g ai/ha, visual rating on 0 to 100 scale (0 no effect, 100 complete control), 13 to 15 days
Procedure, shortened: as §2

[10] = system: Italian ryegrass; experiment: Test A postemergence; assay type: in vivo, Lolium multiflorum
Procedure, shortened: as §1

[11] = system: kochia; experiment: Test A postemergence; assay type: in vivo, Kochia scoparia
Procedure, shortened: as §1

[12] = system: blackgrass; experiment: Test A postemergence; assay type: in vivo, Alopecurus myosuroides
Procedure, shortened: as §1

[13] = system: foxtail, giant; experiment: Test A postemergence; assay type: in vivo, Setaria faberii
Procedure, shortened: as §1

[14] = system: barnyardgrass; experiment: Test B flood; assay type: in vivo, Echinochloa crus-galli; conditions: 250 g ai/ha, visual rating on 0 to 100 scale (0 no effect, 100 complete control), 13 to 15 days
Procedure, shortened: as §2

[15] = system: barnyardgrass; experiment: Test A postemergence; assay type: in vivo, Echinochloa crus-galli
Procedure, shortened: as §1

[16] = system: pigweed; experiment: Test A postemergence; assay type: in vivo, Amaranthus retroflexus
Procedure, shortened: as §1

[17] = system: foxtail, giant; experiment: Test A preemergence; assay type: in vivo, Setaria faberii; conditions: preemergence; for Foxtail, Giant plant response rating (0 to 100 scale): visual injury approx. 10 days after treatment
Procedure, shortened: as §1

[18] = system: galium; experiment: Test A postemergence; assay type: in vivo, Galium aparine
Procedure, shortened: as §1

[19] = system: barnyardgrass; experiment: Test A preemergence; assay type: in vivo, Echinochloa crus-galli; conditions: preemergence; for Barnyardgrass plant response rating (0 to 100 scale, 0 is no effect, 100 is complete control): visual injury approx. 10 days after treatment
Procedure, shortened: as §1

[20] = system: Italian ryegrass; experiment: Test A preemergence; assay type: in vivo, Lolium multiflorum; conditions: for Italian Ryegrass plant response rating (0 to 100 scale): visual injury approx. 10 days after treatment
Procedure, shortened: as §1

[21] = 125 g ai/ha, visual injury, 0 to 100 scale, approx. 10 days
[22] = 500 g ai/ha, visual injury after approx. 10 days, 0 to 100 scale (0 no effect, 100 complete control)
[23] = Postemergence, 500 g ai/ha, 0 to 100 scale (0 no effect, 100 complete control)
[24] = postemergence, 125 g ai/ha, about 10 days, visual rating on 0 to 100 scale (0 no effect, 100 complete control)
[25] = Postemergence, 125 g ai/ha, 0 to 100 scale, 0 no effect, 100 complete control

CCc1cc(C(=O)NC(C)C)nn1Cc1cc(OC(F)F)nn1C [Compound 137]
50: Kochia plant response rating [11, 24] | Blackgrass plant response rating [12, 23] | Pigweed plant response rating [16, 24] | Galium plant response rating [18, 24]
70: Foxtail, Giant plant response rating [13, 23] | Barnyardgrass plant response rating [19, 22]
90: Kochia plant response rating [11, 23]
100: Common Ragweed plant response rating [1, 22] | Pigweed plant response rating [4, 22] | Kochia plant response rating [7, 22]
0: Plant response rating, Rice [3] | Wheat plant response rating [6, 24] | Italian Ryegrass plant response rating [10, 24] | Plant response rating, Barnyardgrass [14] | Barnyardgrass plant response rating [15, 24] | Italian Ryegrass plant response rating [20, 21]
80: Pigweed plant response rating [16, 23] | Foxtail, Giant plant response rating [17, 22] | Galium plant response rating [18, 23]
20: Italian Ryegrass plant response rating [10, 23] | Foxtail, Giant plant response rating [17, 21]
60: Pigweed plant response rating [4, 21] | Barnyardgrass plant response rating [15, 23]
10: Common Ragweed plant response rating [1, 21] | Corn plant response rating [5, 24] | Wheat plant response rating [6, 23] | Common Ragweed plant response rating [8, 24] | Blackgrass plant response rating [12, 24] | Foxtail, Giant plant response rating [13, 24] | Barnyardgrass plant response rating [19, 21]
40: Italian Ryegrass plant response rating [20, 22]
30: Plant response rating, Ducksalad [2] | Corn plant response rating [5, 23] | Kochia plant response rating [7, 21] | Common Ragweed plant response rating [8, 23] | Plant response rating, Sedge, Umbrella [9]

CCCNC(=O)c1cc(CC)n(Cc2cc(C(F)(F)F)nn2C(C)C)n1 [Compound 209]
0: Common Ragweed plant response rating (0 to 100 scale) ([1]; 125 g ai/ha) | Common Ragweed plant response rating [1, 22] | Plant response rating, Ducksalad [2] | Plant response rating, Rice [3] | Pigweed plant response rating (0 to 100 scale) ([4]; 125 g ai/ha) | Corn plant response rating [5, 23] | Corn plant response rating [5, 24] | Wheat plant response rating [6, 25] | Wheat plant response rating [6, 23] | Kochia plant response rating (0 to 100 scale) ([7]; 125 g ai/ha) | Common Ragweed plant response rating [8, 23] | Common Ragweed plant response rating [8, 24] | Plant response rating, Sedge, Umbrella [9] | Italian Ryegrass plant response rating [10, 25] | Italian Ryegrass plant response rating [10, 23] | Kochia plant response rating [11, 25] | Kochia plant response rating [11, 23] | Blackgrass plant response rating [12, 23] | Blackgrass plant response rating [12, 24] | Foxtail, Giant plant response rating [13, 23] | Foxtail, Giant plant response rating [13, 24] | Plant response rating, Barnyardgrass [14] | Barnyardgrass plant response rating [15, 23] | Barnyardgrass plant response rating [15, 24] | Pigweed plant response rating [16, 25] | Pigweed plant response rating [16, 23] | Foxtail, Giant plant response rating (0 to 100 scale) ([17]; 125 g ai/ha) | Foxtail, Giant plant response rating [17, 22] | Galium plant response rating [18, 25] | Galium plant response rating [18, 23] | Barnyardgrass plant response rating (0 to 100 scale, 0 is no effect, 100 is complete control) ([19]; 125 g ai/ha) | Barnyardgrass plant response rating [19, 22] | Italian Ryegrass plant response rating (0 to 100 scale) ([20]; 125 g ai/ha) | Italian Ryegrass plant response rating [20, 22]

CCc1cc(C(=O)NC(C)C)nn1Cc1cc(C(F)(F)F)nn1C(C)C [Compound 210]
0: Common Ragweed plant response rating (0 to 100 scale) ([1]; 125 g ai/ha) | Common Ragweed plant response rating [1, 22] | Plant response rating, Ducksalad [2] | Plant response rating, Rice [3] | Pigweed plant response rating (0 to 100 scale) ([4]; 125 g ai/ha) | Corn plant response rating [5, 25] | Corn plant response rating [5, 23] | Wheat plant response rating [6, 25] | Wheat plant response rating [6, 23] | Kochia plant response rating (0 to 100 scale) ([7]; 125 g ai/ha) | Common Ragweed plant response rating [8, 25] | Common Ragweed plant response rating [8, 23] | Plant response rating, Sedge, Umbrella [9] | Italian Ryegrass plant response rating [10, 25] | Italian Ryegrass plant response rating [10, 23] | Blackgrass plant response rating [12, 25] | Blackgrass plant response rating [12, 23] | Foxtail, Giant plant response rating [13, 25] | Foxtail, Giant plant response rating [13, 23] | Plant response rating, Barnyardgrass [14] | Barnyardgrass plant response rating [15, 25] | Barnyardgrass plant response rating [15, 23] | Pigweed plant response rating [16, 25] | Foxtail, Giant plant response rating (0 to 100 scale) ([17]; 125 g ai/ha) | Foxtail, Giant plant response rating [17, 22] | Galium plant response rating [18, 25] | Barnyardgrass plant response rating (0 to 100 scale, 0 is no effect, 100 is complete control) ([19]; 125 g ai/ha) | Barnyardgrass plant response rating [19, 22] | Italian Ryegrass plant response rating (0 to 100 scale) ([20]; 125 g ai/ha) | Italian Ryegrass plant response rating [20, 22]
10: Kochia plant response rating [11, 25]
20: Kochia plant response rating [11, 23] | Pigweed plant response rating [16, 23] | Galium plant response rating [18, 23]
